Each structure is given as a SMILES string.

The test deals with TNF-α (Homo sapiens, UniProt P01375). The test can be described thus: TNF-α Induced HEK Blue Cellular Assay. The format is cell-based. The settings on record: HEK Blue TNFα reporter cells, TNF-α 100 pg/ml, 24 hrs at 37° C., secreted alkaline phosphatase (QUANTI-Blue, 620 nm). In outline:
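Read-out is SEAP via QUANTI-Blue absorbance at 620 nm after a 24 h, 37 °C incubation of reporter HEK Blue cells with 100 pg/ml TNF-α plus compound at final […]–0.5 nM. Percent inhibition normalised to DMSO ± stimulation; 4-parameter logistic fit gives IC50.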

Chain of TNF-α (P01375 77-233 limits assumed): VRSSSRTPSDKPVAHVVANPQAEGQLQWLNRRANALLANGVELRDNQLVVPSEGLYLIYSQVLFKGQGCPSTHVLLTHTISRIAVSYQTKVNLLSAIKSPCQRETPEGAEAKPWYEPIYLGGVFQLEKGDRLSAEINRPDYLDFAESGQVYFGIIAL

On to `Cc1nc2cc(F)c(-c3cnc(P(C)(C)=O)c(F)c3)cc2c(N[C@H](C)c2cccc(F)c2F)c1Cl` [Example 135, 3-chloro-N-[(1R)-1-(2,3-difluorophenyl)ethyl]-6-[6-(dimethylphosphoryl)-5-fluoropyridin-3-yl]-7-fluoro-2-methylquinolin-4-amine], for which the IC50 is no more than 100 nM. `Cc1nc2cc(F)c(-c3ccc(P(C)(C)=O)nc3)nc2c(N[C@H](C)c2ccc(F)c(F)c2)c1Cl` [Example 80, 3-chloro-N-[(1R)-1-(3,4-difluorophenyl)ethyl]-6-[6-(dimethylphosphoryl)pyridin-3-yl]-7-fluoro-2-methyl-1,5-naphthyridin-4-amine] had an IC50 of no more than 1000 nM. The compound `CCP(=O)(CC)c1ncc(-c2nc3c(N[C@H](C)c4cc(C#N)ccc4F)c(Cl)c(C)nc3cc2F)cn1` [Example 28, 3-[(1R)-1-({3-chloro-6-[2-(diethylphosphoryl)pyrimidin-5-yl]-7-fluoro-2-methyl-1,5-naphthyridin-4-yl}amino)ethyl]-4-fluorobenzonitrile] had an IC50 of no more than 100 nM. To `Cc1nc2cc(F)c(-c3ccc(P(C)(C)=O)nc3)nc2c(N[C@@H](CO)c2ccccc2F)c1Cl` [Example 60, (2R)-2-({3-chloro-6-[6-(dimethylphosphoryl)pyridin-3-yl]-7-fluoro-2-methyl-1,5-naphthyridin-4-yl}amino)-2-(2-fluorophenyl)ethanol] belongs 10000 to 30000 nM; to `Cc1nc2cc(F)c(-c3ccc(P(C)(C)=O)nc3)cc2c(N[C@H](C)c2cncnc2)c1Cl` (single isomer, unassigned) [Example 100], 10000 to 30000 nM; to `Cc1nc2cc(F)c(-c3ccc(P(C)(C)=O)nc3)nc2c(N[C@H](C)c2ccccn2)c1Cl` [Example 83, 3-chloro-6-[6-(dimethylphosphoryl)pyridin-3-yl]-7-fluoro-2-methyl-N-[(1R)-1-(pyridin-2-yl)ethyl]-1,5-naphthyridin-4-amine], no more than 1000 nM. Regarding `CC[P@](C)(=O)c1ccc(-c2nc3c(N[C@H](C)c4cc(C#N)ccc4F)c(Cl)c(C)nc3cc2F)cn1` (single isomer, unassigned) [Example 58], the IC50 is no more than 100 nM. Regarding `Cc1nc2cc(F)c(-c3cnc(P(C)(C)=O)c(F)c3)nc2c(N[C@H](C)c2cccc(F)c2F)c1Cl` [Example 107, 3-chloro-N-[(1R)-1-(2,3-difluorophenyl)ethyl]-6-[6-(dimethylphosphoryl)-5-fluoropyridin-3-yl]-7-fluoro-2-methyl-1,5-naphthyridin-4-amine], the IC50 was no more than 1000 nM.

Consider `CC[C@@H](Nc1c(Cl)c(C)nc2cc(F)c(-c3ccc(P(C)(C)=O)c(F)c3)nc12)c1ccccc1F` [Example 24, 3-chloro-6-[4-(dimethylphosphoryl)-3-fluorophenyl]-7-fluoro-N-[(1R)-1-(2-fluorophenyl)propyl]-2-methyl-1,5-naphthyridin-4-amine], for which the IC50 was no more than 1000 nM. As for `CC[C@@H](Nc1c(Cl)c(C)nc2cc(F)c(-c3ccc(P(C)(C)=O)c(F)c3)nc12)c1ncccc1F` [Example 4, 3-chloro-6-[4-(dimethylphosphoryl)-3-fluorophenyl]-7-fluoro-N-[(1R)-1-(3-fluoropyridin-2-yl)propyl]-2-methyl-1,5-naphthyridin-4-amine], the IC50 was no more than 1000 nM. As to `Cc1nc2cc(F)c(-c3ccc(P(C)(C)=O)nc3)nc2c(N[C@H](C)c2cccnc2)c1Cl` [Example 75, 3-chloro-6-[6-(dimethylphosphoryl)pyridin-3-yl]-7-fluoro-2-methyl-N-[(1R)-1-(pyridin-3-yl)ethyl]-1,5-naphthyridin-4-amine], the 50% inhibitory concentration (IC50) is no more than 100 nM. For the compound `Cc1nc2cc(F)c(-c3ccc(P(C)(C)=O)nc3)nc2c(N[C@@H](c2ccccc2F)C(F)(F)F)c1Cl` [Example 70, 3-chloro-6-[6-(dimethylphosphoryl)pyridin-3-yl]-7-fluoro-2-methyl-N-[(1S)-2,2,2-trifluoro-1-(2-fluorophenyl)ethyl]-1,5-naphthyridin-4-amine], the IC50 was no more than 100 nM. As to `Cc1nc2cc(F)c(-c3ccc(P(C)(C)=O)nc3)nc2c(N[C@@H](CO)c2cc(C#N)ccc2F)c1Cl` (single isomer, unassigned) [Example 64], the IC50 fell in the range of 10000 to 30000 nM. In turn, `C[C@@H](Nc1c(Cl)cnc2cc(F)c(-c3cnc(P(C)(C)=O)nc3)nc12)c1cc(C#N)ccc1F` [Example 14, 3-[(1R)-1-({3-chloro-6-[2-(dimethylphosphoryl)pyrimidin-5-yl]-7-fluoro-1,5-naphthyridin-4-yl}amino)ethyl]-4-fluorobenzonitrile] displayed an IC50 of no more than 1000 nM. In turn, `Cc1nc2cc(F)c(-c3ccc(P(C)(C)=O)nc3)nc2c(N[C@@H](C)c2cccc(F)c2F)c1Cl` [Example 45, 3-chloro-N-[(1S)-1-(2,3-difluorophenyl)ethyl]-6-[6-(dimethylphosphoryl)pyridin-3-yl]-7-fluoro-2-methyl-1,5-naphthyridin-4-amine] had an IC50 of no more than 100 nM. For `Cc1nc2ccc(-c3ccc(P(C)(C)=O)nc3)cc2c(N[C@H](C)c2cc(C#N)ccc2F)c1Cl` [Example 5, 3-[(1R)-1-({3-chloro-6-[6-(dimethylphosphoryl)pyridin-3-yl]-2-methylquinolin-4-yl}amino)ethyl]-4-fluorobenzonitrile], the concentration for half-maximal inhibition (IC50) is no more than 100 nM. Consider `Cc1nc2cc(F)c(-c3ccc(P(C)(C)=O)nc3)nc2c(N[C@H](C)c2ncccc2F)c1Cl` (single isomer, unassigned) [Example 116], for which the IC50 is no more than 100 nM. To `Cc1nc2cc(F)c(-c3ccc(P(C)(C)=O)nc3)nc2c(N[C@@H](C)c2ncccc2F)c1Cl` (single isomer, unassigned) [Example 117] belongs 1000 to 10000 nM; to `Cc1nc2cc(F)c(-c3ccc(P4(=O)CCOCC4)nc3)nc2c(N[C@H](C)c2cc(C#N)ccc2F)c1Cl` [Example 141, 3-[(1R)-1-({3-chloro-7-fluoro-2-methyl-6-[6-(4-oxo-1,4lambda5-oxaphosphinan-4-yl)pyridin-3-yl]-1,5-naphthyridin-4-yl}amino)ethyl]-4-fluorobenzonitrile], 1000 to 10000 nM; to `CC[C@@H](Nc1c(Cl)c(C)nc2cc(F)c(-c3ccc(P(C)(C)=O)nc3)nc12)c1cccc(C#N)c1` [Example 48, 3-[(1R)-1-({3-chloro-6-[6-(dimethylphosphoryl)pyridin-3-yl]-7-fluoro-2-methyl-1,5-naphthyridin-4-yl}amino)propyl]benzonitrile], no more than 100 nM. `Cc1nc2cc(F)c(-c3cnc(P(C)(C)=O)nc3)nc2c(N[C@H](C)c2cc(C#N)ccc2F)c1Cl` [Example 1, 3-[(1R)-1-({3-chloro-6-[2-(dimethylphosphoryl)pyrimidin-5-yl]-7-fluoro-2-methyl-1,5-naphthyridin-4-yl}amino)ethyl]-4-fluorobenzonitrile]: the IC50 is no more than 100 nM. Turning to `Cc1nc2cc(F)c(-c3ccc(P(C)(C)=O)nc3)nc2c(N[C@@H](c2ccccc2)C2CC2)c1Cl` [Example 137, 3-chloro-N—[(R)-cyclopropyl(phenyl)methyl]-6-[6-(dimethylphosphoryl)pyridin-3-yl]-7-fluoro-2-methyl-1,5-naphthyridin-4-amine], the IC50 was no more than 1000 nM. Turning to `CC[C@H](Nc1c(Cl)c(C)nc2cc(F)c(-c3ccc(P(C)(C)=O)nc3)nc12)c1cc(C#N)ccc1F` [Example 44, 3-[(1S)-1-({3-chloro-6-[6-(dimethylphosphoryl)pyridin-3-yl]-7-fluoro-2-methyl-1,5-naphthyridin-4-yl}amino)propyl]-4-fluorobenzonitrile], the IC50 is no more than 100 nM.

As a reminder, the IC50 is the midpoint of a concentration-inhibition curve. A higher IC50 goes with a need for much substance.

The values are drawn from patent US12338262B2 (Forward Therapeutics, Inc., priority 2022, dated 2025).
